The target of assay [1] is T1, A II receptor (Oryctolagus cuniculus, UniProt P34976).
T1 construct: A II-induced contraction in the rabbit aorta; from tissue; host or cells: rabbit aorta
T1 sequence (P34976 1-359): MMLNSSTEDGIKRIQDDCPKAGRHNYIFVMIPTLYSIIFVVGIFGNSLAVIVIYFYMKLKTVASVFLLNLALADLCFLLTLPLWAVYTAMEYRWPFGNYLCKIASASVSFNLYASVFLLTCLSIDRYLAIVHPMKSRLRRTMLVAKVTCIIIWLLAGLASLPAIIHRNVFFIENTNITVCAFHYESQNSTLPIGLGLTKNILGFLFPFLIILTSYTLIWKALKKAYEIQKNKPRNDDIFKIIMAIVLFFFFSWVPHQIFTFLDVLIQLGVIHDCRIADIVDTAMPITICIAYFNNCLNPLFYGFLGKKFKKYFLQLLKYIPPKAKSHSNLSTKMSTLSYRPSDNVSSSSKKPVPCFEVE
Put plainly: inhibition of the A II-induced contraction in the rabbit aorta. The settings on record: in vitro, read-out: pA2 (converted). Format: cell-based. An excerpt: (§1) The compounds described in the present invention act as antagonists at the A II receptor level.
(§2) For the characterization and the evaluation of the effectiveness of the compounds of the invention, in vitro tests (such as the inhibition of the A II-induced contraction in the rabbit aorta and the displacement of ^125 I-Sar^1 -Ile^8 -AT II or [^3 H] AT II in the rat adrenal cortex) and an in vivo test (the inhibition of the A II-induced pressory response in the ganglio-blocked normotensive rat) were selected.

Assay [2] has as its target A II receptor. Put plainly: receptor binding test: displacement of 125I-Sar1-Ile8-AT II or [3H] AT II in the rat adrenal cortex.
Source text: as §1, §2

For orientation: Ki means a measure of affinity in units of concentration, obtained from inhibition or displacement.

In the case of `CCCCc1nc(Cl)c(COCc2occc2C(=O)O)n1Cc1ccc(-c2ccccc2-c2nnn[nH]2)cc1` [2-butyl-5-[(3-carboxyfuran-2-yl)methoxymethyl]-4-chloro-1-[[2'-(1H-tetrazol-5-yl)-1,1'-biphenyl-4-yl]methyl]-1H-imidazole], the Kb at A II receptor [1] was 1.26 nM. On A II receptor [2], this compound yielded a Ki of 3.2 nM.

As to `CCCCc1nc(Cl)c(COCc2ccccc2C(=O)O)n1Cc1ccc(-c2ccccc2-c2nnn[nH]2)cc1` [ex. 18, 2-butyl-5-[(2-carboxyphenyl)methoxymethyl]-4-chloro-1-[[2'-(1H-tetrazol-5-yl)-1,1'-biphenyl-4-yl]methyl]-1H-imidazole], the Kb on A II receptor [1] is 0.2 nM. This compound yielded a Ki at A II receptor [2] of 4.4 nM.
